Results on 26 compounds are retold here after ChEMBL document CHEMBL1140104, “Chlorogenic acid derivatives with alkyl chains of different lengths and orientations: potent alpha-glucosidase inhibitors” (J Med Chem, 2008).

Each structure is given as a SMILES string. Structures can show the parent of a compound that is named as a salt.

The nature of data set [1]: Inhibition of Saccharomyces cerevisiae alpha-glucosidase.
Data set [2] is described as follows: Inhibition of Bacillus stearothermophilus alpha-glucosidase. Also on record: species or system Geobacillus stearothermophilus.
The nature of data set [3]: Stability in artificial intestinal juice at 10 mM after 12 hrs. The class given is physicochemical. The note with it: simulated gi fluid, 10000 µM.
A short description of data set [4]: Stability in artificial gastric juice at 10 mM after 48 hrs. The class given is physicochemical. To be noted: simulated gi fluid, 10000 µM.

One may read the IC50 as the midpoint of a concentration-inhibition curve. Low readings indicate higher potency, high ones lower potency. For the compound `CCCCCCCC[C@@H]1OC(=O)[C@]2(C[C@@H](OC(=O)/C=C/c3ccc(O)c(O)c3)[C@@H]3O[C@H](CCCCCCCC)O[C@@H]3C2)O1`, the values for the IC50 in data set [1] and in data set [2] were 1 µM and 2 µM, respectively.

As to `CCCCCCCC[C@@H]1O[C@H]2[C@H](OC(=O)/C=C/c3ccc(O)c(O)c3)C[C@]3(C[C@H]2O1)O[C@H](CCCCCCCC)OC3=O`, the IC50 in data set [1] turned out to be 0.8 µM; in data set [2], 1.8 µM.

Turning to `CCCCCCCCC1(CCCCCCCC)OC(=O)[C@@]2(C[C@@H](O)[C@@H](O)[C@H](OC(=O)/C=C/c3ccc(O)c(O)c3)C2)O1`, the IC50 was 3 µM in data set [1] and 5.1 µM in data set [2].

As to `CC1(C)O[C@H]2[C@H](OC(=O)/C=C/c3ccc(O)c(O)c3)C[C@]3(C[C@H]2O1)OC(C)(C)OC3=O`, the IC50 in data set [1] turned out to be 391 µM; in data set [2] it was 154 µM.

As to `CCCCCC1(CCCCC)OC(=O)[C@@]2(C[C@@H](O)[C@@H](O)[C@H](OC(=O)/C=C/c3ccc(O)c(O)c3)C2)O1`, the figures for the IC50 in data set [1] and in data set [2] were 3.6 µM and 14.2 µM, respectively.

In the case of `CCCCCCC1(CCCCCC)OC(=O)[C@@]2(C[C@@H](O)[C@@H](O)[C@H](OC(=O)/C=C/c3ccc(O)c(O)c3)C2)O1`, the IC50 in data set [1] was 3.4 µM; in data set [2], 3.9 µM.

In the case of `CCCCCCCC[C@@H]1OC(=O)[C@@]2(C[C@@H](O)[C@@H](O)[C@H](OC(=O)/C=C/c3ccc(O)c(O)c3)C2)O1`, the figures for the IC50 in data set [1] and in data set [2] were 3.3 µM and 10.9 µM, respectively.

On to `CC1(C)OC(=O)[C@@]2(C[C@@H](O)[C@@H](O)[C@H](OC(=O)/C=C/c3ccc(O)c(O)c3)C2)O1`, for which the IC50 in data set [1] was determined as 114 µM; in data set [2], 2540 µM.

For `CCC1(CC)O[C@H]2[C@H](OC(=O)/C=C/c3ccc(O)c(O)c3)C[C@]3(C[C@H]2O1)OC(CC)(CC)OC3=O`, the IC50 worked out at 26.5 µM in data set [1] and 44.9 µM in data set [2].

For the compound `CCCCC1(CCCC)OC(=O)[C@@]2(C[C@@H](O)[C@@H](O)[C@H](OC(=O)/C=C/c3ccc(O)c(O)c3)C2)O1`, the IC50 in data set [1] is 3.4 µM; in data set [2] it was 14.4 µM.

With `CCCCCCCC[C@H]1OC(=O)[C@@]2(C[C@@H](O)[C@@H](O)[C@H](OC(=O)/C=C/c3ccc(O)c(O)c3)C2)O1`, the IC50 in data set [1] was 3.6 µM; in data set [2], 12.5 µM.

Consider `CC1(C)OC2Cc3c(O)cc(O)cc3O[C@@H]2c2cc(O)c(O)cc21` (some centres undefined), for which the IC50 worked out at 18.5 µM in data set [1] and 29.6 µM in data set [2].

With `CCCCCCCC1(CCCCCCC)OC(=O)[C@@]2(C[C@@H](O)[C@@H](O)[C@H](OC(=O)/C=C/c3ccc(O)c(O)c3)C2)O1`, the values for the IC50 in data set [1] and in data set [2] were 4.3 µM and 3.6 µM, respectively.

As for `CCCCCCCC[C@H]1O[C@H]2[C@H](OC(=O)/C=C/c3ccc(O)c(O)c3)C[C@]3(C[C@H]2O1)O[C@@H](CCCCCCCC)OC3=O`, the results for the IC50 in data set [1] and in data set [2] were 0.3 µM and 0.8 µM, respectively.

As for `CCCCCCC1(CCCCCC)O[C@H]2[C@H](OC(=O)/C=C/c3ccc(O)c(O)c3)C[C@]3(C[C@H]2O1)OC(CCCCCC)(CCCCCC)OC3=O`, the values for the IC50 in data set [1] and in data set [2] were 0.5 µM and 0.8 µM, respectively.

For `CCCCCCCC1(CCCCCCC)O[C@H]2[C@H](OC(=O)/C=C/c3ccc(O)c(O)c3)C[C@]3(C[C@H]2O1)OC(CCCCCCC)(CCCCCCC)OC3=O`, the IC50 in data set [1] was 0.4 µM; in data set [2], 0.9 µM.

With `CCCCCCCCC1(CCCCCCCC)O[C@H]2[C@H](OC(=O)/C=C/c3ccc(O)c(O)c3)C[C@]3(C[C@H]2O1)OC(CCCCCCCC)(CCCCCCCC)OC3=O`, the results for the IC50 in data set [1] and in data set [2] were 0.5 µM and 0.9 µM, respectively.

For `CCCCCC1(CCCCC)O[C@H]2[C@H](OC(=O)/C=C/c3ccc(O)c(O)c3)C[C@]3(C[C@H]2O1)OC(CCCCC)(CCCCC)OC3=O`, the IC50 is 0.8 µM in data set [1] and 1.1 µM in data set [2].

In the case of `CCCCC1(CCCC)O[C@H]2[C@H](OC(=O)/C=C/c3ccc(O)c(O)c3)C[C@]3(C[C@H]2O1)OC(CCCC)(CCCC)OC3=O`, the IC50 was 0.3 µM in data set [1] and 0.8 µM in data set [2].

In the case of `CCCCCCCC[C@@H]1O[C@H]2[C@H](OC(=O)/C=C/c3ccc(O)c(O)c3)C[C@]3(C[C@H]2O1)O[C@@H](CCCCCCCC)OC3=O`, the IC50 in data set [1] came out at 0.3 µM; in data set [2], 0.7 µM. Further, the Stability entry in data set [3] and in data set [4] was “Stable” each time.

On to `CCCC1(CCC)O[C@H]2[C@H](OC(=O)/C=C/c3ccc(O)c(O)c3)C[C@]3(C[C@H]2O1)OC(CCC)(CCC)OC3=O`, for which the IC50 in data set [1] amounted to 3.3 µM; in data set [2], 5.5 µM.

As for `CCCC1(CCC)OC(=O)[C@@]2(C[C@@H](O)[C@@H](O)[C@H](OC(=O)/C=C/c3ccc(O)c(O)c3)C2)O1`, the values for the IC50 in data set [1] and in data set [2] were 19.4 µM and 62.2 µM, respectively.

Turning to `CCC1(CC)OC(=O)[C@@]2(C[C@@H](O)[C@@H](O)[C@H](OC(=O)/C=C/c3ccc(O)c(O)c3)C2)O1`, the IC50 was determined as 71.1 µM in data set [1] and 128 µM in data set [2].

As to `C[C@H]1O[C@H](O[C@H]2[C@H](O)[C@@H](O)[C@@H](O[C@H]3[C@H](O)[C@@H](O)C(O)O[C@@H]3CO)O[C@@H]2CO)[C@H](O)[C@@H](O)[C@@H]1N[C@H]1C=C(CO)[C@@H](O)[C@H](O)[C@H]1O` (some centres undefined) [ACARBOSE], the half-maximal inhibitory concentration (IC50) in data set [1] and in data set [2] was 0.1 µM in each case.

Turning to `O=C(/C=C/c1ccc(O)c(O)c1)O[C@@H]1C[C@](O)(C(=O)O)C[C@@H](O)[C@H]1O` [CHLOROGENIC ACID], the half-inhibitory concentration (IC50) in data set [1] was more than 2820 µM; in data set [2], 2820 µM.

`OC[C@H]1NC[C@H](O)[C@@H](O)[C@@H]1O` [DUVOGLUSTAT HYDROCHLORIDE]: the IC50 in data set [1] was 1.8 µM; in data set [2], 2.4 µM.
